{"source": "patent US4529593A", "about": "“Use of gallium salts to treat disorders of calcium homeostasis” (Sloan-Kettering Institute for Cancer Research, priority 1984, dated 1985)", "key": {"bone turnover": {"system": "bone turnover", "test": "bone turnover in a patient with multiple myeloma and extensive bone destruction", "format": "in vivo", "conditions": "200 mg/sq m/d×7 d infusion; for urine OH--Proline: previous 95.4; for urine Calcium: previous 618; for urine Phosphorus: previous 1630; for Urine Volume: previous 3640", "experimental": "Summary: Patients with bone metastasis suffer progressive erosion of bone which causes pain, immobilization and fractures. Clinically, bone metastases are evaluated by sequential x-rays over a period of months to years. Other measures have recently been employed to measure bone turnover in patients with both cancer and non-cancerous bone resorption. In general, increased bone turnover is associated with increased loss of calcium into the urine and with increased excretion of hydroxyproline ([…]). Measurements of these parameters have been used to assess whether a new drug affects bone resorption (Siris, E. S. et al, New Engl J Med 302:310, 1980). We recently measured these parameters in a patient with multiple myeloma and extensive bone destruction who received gallium nitrate (200 mg/sq m/d×7 d by infusion)."}, "explanted bones": {"system": "explanted bones", "test": "PGE2 release from explanted fetal rat bones", "format": "cell-based"}, "fetal rat bones": {"system": "fetal rat bones", "test": "45-Ca++ release (bone resorption) from explants of fetal rat bones stimulated by PTH or lymphokine (OAF)", "format": "cell-based", "conditions": "for 45-Ca++ release after stimulation by PTH or lymphokine (dose dependence): 48 hrs preincubation; for 45-Ca++ release expt'l / 45-Ca++ release control (E/C): control 1.00 ± .06; for 45-Ca++ release, gallium alone: without added PTH or lymphokine, vs control bones", "experimental": "The effects of gallium nitrate on bone resorption in vitro were studied using explants of fetal rat bones (Bockman, R. S. and Repo, M. A., J Exp Med 154:529, 1981). Pregnant rats were injected with 0.2-0.4 mCi of 45-CaC12 on the 18th day of gestation. After 2 days of bone mineralization in utero, the radii and ulnae of fetal rats were explanted and placed on stainless steel rafts in BGJ media. Calcium releases from bone was stimulated by the addition of bovine PTH (2.0 microM, final concentration)or a lymphokine (OAF) preparation (10% of final volume). Gallium nitrate was added to the culture media at final concentration of 1, 5 and 10 mcg/ml simultaneously with--and 18 or 48 hours prior to--the addition of the bone-resorbing factors. After 48 hours of exposure to lymphokine or PTH, calcium release was determined by counting the supernatant media in a liquid scintillation counter. Data were expressed as the ratio of calcium release in counts per minute (cpm) of the experimental bone (treated or untreated with gallium nitrate and a resorbing factor) to cpm release by a paired control bone (treated or untreated with gallium nitrate) [cpm experimental/cpm control=E/C] Forty-nine bones were used to establish control values; 4-22 bones were used to obtain each of the experimental points. […]"}, "animal and human tumors": {"system": "animal and human tumors", "conditions": "certain animal and human tumors; Warrell 1983, Adamson 1975; cited from earlier work"}, "[1]": {"conditions": "48 h preincubation, 1, 5 and 10 mcg/ml"}}}
{"compound": "O=[N+]([O-])[O-].O=[N+]([O-])[O-].O=[N+]([O-])[O-].[Ga+3]", "note": "[gallium nitrate]", "values": [{"measurement": "urine OH--Proline", "setting": "bone turnover; day 8", "value": 19.0, "unit": "mg/24 h"}, {"measurement": "urine Calcium", "setting": "bone turnover; day 8", "value": 97, "unit": "mg/24 h"}, {"measurement": "urine Phosphorus", "setting": "bone turnover; day 8", "value": 419, "unit": "mg/24 h"}, {"measurement": "Urine Volume", "setting": "bone turnover; day 8", "value": 3225, "unit": "ml/24 h"}, {"measurement": "amount of calcium and hydroxyproline excretion", "setting": "bone turnover; myeloma patient", "value": "marked decrease"}, {"measurement": "bone pain", "setting": "bone turnover; myeloma patient", "value": "substantial decrease in bone pain"}, {"measurement": "effect upon the underlying disease", "setting": "bone turnover; myeloma patient", "value": "no effect upon the underlying disease"}, {"measurement": "requirement for narcotics", "setting": "bone turnover; myeloma patient", "value": "reduced requirement for narcotics"}, {"measurement": "urine OH--Proline", "setting": "bone turnover; treatment day 1", "value": 76.0, "unit": "mg/24 h"}, {"measurement": "urine Calcium", "setting": "bone turnover; treatment day 1", "value": 502, "unit": "mg/24 h"}, {"measurement": "urine Phosphorus", "setting": "bone turnover; treatment day 1", "value": 567, "unit": "mg/24 h"}, {"measurement": "Urine Volume", "setting": "bone turnover; treatment day 1", "value": 4365, "unit": "ml/24 h"}, {"measurement": "urine OH--Proline", "setting": "bone turnover; treatment day 4", "value": 23.9, "unit": "mg/24 h"}, {"measurement": "urine Calcium", "setting": "bone turnover; treatment day 4", "value": 239, "unit": "mg/24 h"}, {"measurement": "urine Phosphorus", "setting": "bone turnover; treatment day 4", "value": 607, "unit": "mg/24 h"}, {"measurement": "Urine Volume", "setting": "bone turnover; treatment day 4", "value": 3620, "unit": "ml/24 h"}, {"measurement": "PGE2 release from explanted bones", "setting": "explanted bones; 10 mcg/ml, 24-48 h, vs non-treated bones", "value": "no change in PGE2 over control"}, {"measurement": "PGE2 release", "setting": "explanted bones; [1]", "value": "no significant change in PGE2 release"}, {"measurement": "PGE2", "setting": "explanted bones; PTH, gallium 1 mcg/ml, 48 h preincubation, 0 gallium: 1.4, control 1.2", "value": 2.2, "unit": "ng/bone"}, {"measurement": "PGE2", "setting": "explanted bones; PTH, gallium 5 mcg/ml, 48 h preincubation, 0 gallium: 1.4, control 1.2", "value": 1.3, "unit": "ng/bone"}, {"measurement": "PGE2", "setting": "explanted bones; PTH, gallium 10 mcg/ml, 48 h preincubation, 0 gallium: 1.4, control 1.2", "value": 3.9, "unit": "ng/bone"}, {"measurement": "PGE2 release of gallium treated bones on exposure to lymphokine, but not PTH", "setting": "explanted bones; gallium treated bones exposed to lymphokine", "value": "significant increase in PGE2 release"}, {"measurement": "PGE2", "setting": "explanted bones; lymphokine, gallium 1 mcg/ml, 48 h preincubation, 0 gallium: 17.1, control 2.0", "value": 17.4, "unit": "ng/bone"}, {"measurement": "PGE2", "setting": "explanted bones; lymphokine, gallium 5 mcg/ml, 48 h preincubation, 0 gallium: 17.1, control 2.0", "value": 16.7, "unit": "ng/bone"}, {"measurement": "PGE2", "setting": "explanted bones; lymphokine, gallium 10 mcg/ml, 48 h preincubation, 0 gallium: 17.1, control 2.0", "value": 15.1, "unit": "ng/bone"}, {"measurement": "45-Ca++ release after stimulation by PTH or lymphokine (dose dependence)", "setting": "fetal rat bones; 1 mcg/ml", "value": "no significant change"}, {"measurement": "45-Ca++ release after stimulation by PTH or lymphokine (dose dependence)", "setting": "fetal rat bones; 5 and 10 mcg/ml, P less than 0.025", "value": "significant and dose-related reductions"}, {"measurement": "45-Ca++ release (time dependence)", "setting": "fetal rat bones; 10 mcg/ml simultaneously with (time 0) or 18 hrs preceding PTH or lymphokine", "value": "the reduction was not statistically significant"}, {"measurement": "45-Ca++ release", "setting": "fetal rat bones; [1]", "value": "dose dependent decrease"}, {"measurement": "45-Ca++ release expt'l / 45-Ca++ release control (E/C)", "setting": "fetal rat bones; PTH-stimulated, gallium 1 mcg/ml, 48 h preincubation, 0 gallium: 1.21 ± 0.15", "value": 1.24}, {"measurement": "45-Ca++ release expt'l / 45-Ca++ release control (E/C)", "setting": "fetal rat bones; PTH-stimulated, gallium 5 mcg/ml, 48 h preincubation, 0 gallium: 1.21 ± 0.15", "value": 1.08}, {"measurement": "45-Ca++ release expt'l / 45-Ca++ release control (E/C)", "setting": "fetal rat bones; PTH-stimulated, gallium 10 mcg/ml, 48 h preincubation, 0 gallium: 1.21 ± 0.15", "value": 0.99}, {"measurement": "45-Ca++ release expt'l / 45-Ca++ release control (E/C)", "setting": "fetal rat bones; lymphokine-stimulated, gallium 1 mcg/ml, 48 h preincubation, 0 gallium: 1.59 ± .1", "value": "1.54 ± .16"}, {"measurement": "45-Ca++ release expt'l / 45-Ca++ release control (E/C)", "setting": "fetal rat bones; lymphokine-stimulated, gallium 5 mcg/ml, 48 h preincubation, 0 gallium: 1.59 ± .1", "value": "1.21 ± .04"}, {"measurement": "45-Ca++ release expt'l / 45-Ca++ release control (E/C)", "setting": "fetal rat bones; lymphokine-stimulated, gallium 10 mcg/ml, 48 h preincubation, 0 gallium: 1.59 ± .1", "value": "1.23 ± .04"}, {"measurement": "lymphokine-induced 45-Ca++ release (time dependence)", "setting": "fetal rat bones; pre-incubation 48 hours preceding lymphokine, 10 mcg/ml", "value": "highly significant reduction"}, {"measurement": "calcium release induced by PTH and by factor similar to OAF", "setting": "fetal rat bones; summary, inhibition time- and dose-dependent", "value": "inhibits calcium release induced by both of these substances"}, {"measurement": "45-Ca++ release, gallium alone", "setting": "fetal rat bones", "value": "No increase in bone calcium release"}, {"measurement": "45-Ca++ release, gallium alone", "setting": "fetal rat bones; listed as gallium", "value": "did not have any effect on 45-Ca++ release"}, {"measurement": "anticancer activity", "setting": "animal and human tumors", "value": "modest anticancer activity"}]}
